In brackets after ≈: the same amount, converted by molar mass.
What was measured:
Escherichia coli [1] = test: Potentiation of colistin-induced antibacterial activity against Escherichia coli AR-0493 assessed as minimum re-sensitizing concentration; type: functional; settings: read-out: MEC
[2] = Selectivity index, ratio of GI50 for cytotoxicity against human HepG2 cells to MEC for potentiation of colistin-induced antibacterial activity against Escherichia coli AR-0493 assessed as minimum re-sensitizing concentration; type: toxicity, cell-based; settings: read-out: Selectivity Index
[3] = Cytotoxicity against human HepG2 cells by Cell Titer Glo assay; type: toxicity, cell-based
Escherichia coli [4] = test: Antibacterial activity against Escherichia coli AR-0493 by CLSI based susceptibility testing method; type: functional
Escherichia coli [5] = test: Potentiation of colistin-induced antibacterial activity against Escherichia coli AR-0493 harboring mcr-1 gene assessed as colistin MIC at 1 ug/ml; type: functional; settings: dose 1 µg/ml
Klebsiella pneumoniae = test: Potentiation of colistin-induced antibacterial activity against Klebsiella pneumoniae AR-0497 harboring mcr-1 gene assessed as colistin MIC at 1 ug/ml; type: functional; settings: dose 1 µg/ml
Escherichia coli [6] = test: Synergistic antibacterial activity against Escherichia coli AR-0493 assessed as fractional inhibitory concentration index in presence of colistin by Checkerboard broth microdilution assay; type: functional
Salmonella typhimurium [7] = test: Potentiation of colistin-induced antibacterial activity against Salmonella typhimurium AR-0539 harboring mcr-3 gene assessed as colistin MIC at 1 ug/ml; type: functional, Salmonella enterica subsp. enterica serovar Typhimurium; settings: Salmonella enterica, dose 1 µg/ml
Escherichia coli [8] = test: Potentiation of colistin-induced antibacterial activity against Escherichia coli AR-0538 harboring mcr-2 gene assessed as colistin MIC at 1 ug/ml; type: functional; settings: dose 1 µg/ml
Acinetobacter baumannii = test: Potentiation of colistin-induced antibacterial activity against Acinetobacter baumannii AR-0310 assessed as colistin MIC at 1 ug/ml; type: functional; settings: dose 1 µg/ml
Salmonella typhimurium [9] = test: Potentiation of colistin-induced antibacterial activity against Salmonella typhimurium AR-0635 harboring mcr-4 gene assessed as colistin MIC at 1 ug/ml; type: functional, Salmonella enterica subsp. enterica serovar Typhimurium; settings: Salmonella enterica, dose 1 µg/ml
Pseudomonas aeruginosa = test: Potentiation of colistin-induced antibacterial activity against Pseudomonas aeruginosa AR-0239 assessed as colistin MIC at 1 ug/ml; type: functional; settings: dose 1 µg/ml

Fc1cccc(CNc2nc3nonc3nc2NCc2cccc(F)c2)c1
minimal effective concentration (Escherichia coli [1]): > 16 µg/mL

CNc1nc2nonc2nc1Nc1cccc(Cl)c1
minimal effective concentration (Escherichia coli [1]): 8 µg/mL

CC(C)(C)OC(=O)N1CC(CNc2nc3nonc3nc2Nc2cccc(Cl)c2)C1
minimal effective concentration (Escherichia coli [1]): 4 µg/mL

CCCCCCNc1nc2nonc2nc1Nc1cccc(Cl)c1
minimal effective concentration (Escherichia coli [1]): 1 µg/mL

CC(C)(C)Nc1nc2nonc2nc1NC(C)(C)C
minimal effective concentration (Escherichia coli [1]): 8 µg/mL

C1CCC(Nc2nc3nonc3nc2NC2CCCC2)C1
minimal effective concentration (Escherichia coli [1]): 8 µg/mL

CCCCNc1nc2nonc2nc1Nc1cccc(Cl)c1
minimal effective concentration (Escherichia coli [1]): 0.5 µg/mL | selectivity ratio [2]: 11 | GI50 [3]: 5.7 µg/mL (≈ 17.9 µM) | MIC (Escherichia coli [4]): > 64 µg/mL

Clc1cccc(Nc2nc3nonc3nc2NCC2CC2)c1
minimal effective concentration (Escherichia coli [1]): 1 µg/mL

C1CCC(Nc2nc3nonc3nc2NC2CCCCC2)CC1
minimal effective concentration (Escherichia coli [1]): 4 µg/mL

Clc1cccc(Nc2nc3nonc3nc2NCC2COC2)c1
minimal effective concentration (Escherichia coli [1]): > 16 µg/mL

Clc1cccc(Nc2nc3nonc3nc2NCCc2ccccc2)c1
minimal effective concentration (Escherichia coli [1]): 0.5 µg/mL | selectivity ratio [2]: 1.7 | GI50 [3]: 0.83 µg/mL (≈ 2.26 µM) | MIC (Escherichia coli [4]): > 64 µg/mL

CCCCCCCCCCNc1nc2nonc2nc1Nc1cccc(Cl)c1
minimal effective concentration (Escherichia coli [1]): 2 µg/mL

FC(F)CNc1nc2nonc2nc1Nc1cccc(Cl)c1
minimal effective concentration (Escherichia coli [1]): 2 µg/mL

CCCCCCCNc1nc2nonc2nc1Nc1cccc(Cl)c1
minimal effective concentration (Escherichia coli [1]): 0.5 µg/mL | selectivity ratio [2]: 6.6 | GI50 [3]: 3.3 µg/mL (≈ 9.15 µM) | MIC (Escherichia coli [4]): > 64 µg/mL

CCCCCCCCNc1nc2nonc2nc1Nc1cccc(Cl)c1
minimal effective concentration (Escherichia coli [1]): 1 µg/mL

Clc1cccc(Nc2nc3nonc3nc2NC2CC2)c1
minimal effective concentration (Escherichia coli [1]): 1 µg/mL

CC(C)(C)Nc1nc2nonc2nc1Nc1cccc(Cl)c1
minimal effective concentration (Escherichia coli [1]): 2 µg/mL

CCCCCCCCNc1nc2nonc2nc1NCCCCCCCC
minimal effective concentration (Escherichia coli [1]): 4 µg/mL

Clc1ccc(CNc2nc3nonc3nc2NCc2ccc(Cl)cc2)cc1
MIC (Escherichia coli [5]): 0.5 µg/mL | MIC (Klebsiella pneumoniae): 2 µg/mL | fractional inhibitory concentration index (FICI) (Escherichia coli [6]): 0.07 | minimal effective concentration (Escherichia coli [1]): 0.125 µg/mL | MIC (Salmonella typhimurium [7]): 1 µg/mL | selectivity ratio [2]: 36 | MIC (Escherichia coli [8]): 1 µg/mL | MIC (Acinetobacter baumannii): 0.5 µg/mL | GI50 [3]: 4.5 µg/mL (≈ 11.2 µM) | MIC (Salmonella typhimurium [9]): 2 µg/mL | MIC (Pseudomonas aeruginosa): 1 µg/mL | MIC (Escherichia coli [4]): > 64 µg/mL

Clc1ccc2[nH]cc(CCNc3nc4nonc4nc3NCCc3c[nH]c4ccc(Cl)cc34)c2c1
minimal effective concentration (Escherichia coli [1]): > 16 µg/mL

Clc1cccc(Nc2nc3nonc3nc2NC2CCCCC2)c1
minimal effective concentration (Escherichia coli [1]): 1 µg/mL

CCCCCCCCCCCCNc1nc2nonc2nc1NCCCCCCCCCCCC
minimal effective concentration (Escherichia coli [1]): > 16 µg/mL

FC1(F)CC(CNc2nc3nonc3nc2Nc2cccc(Cl)c2)C1
minimal effective concentration (Escherichia coli [1]): 1 µg/mL

Clc1cccc(Nc2nc3nonc3nc2NC2CCC2)c1
minimal effective concentration (Escherichia coli [1]): 1 µg/mL

c1ccc2nc(NCCNc3nc4nonc4nc3NCCNc3ccc4ccccc4n3)ccc2c1
minimal effective concentration (Escherichia coli [1]): > 16 µg/mL

Clc1ccc(CNc2nc3nonc3nc2Nc2cccc(Cl)c2)cc1
minimal effective concentration (Escherichia coli [1]): 0.25 µg/mL | selectivity ratio [2]: 19 | GI50 [3]: 4.9 µg/mL (≈ 12.7 µM) | MIC (Escherichia coli [4]): > 64 µg/mL

Clc1cccc(CNc2nc3nonc3nc2Nc2cccc(Cl)c2)c1
minimal effective concentration (Escherichia coli [1]): 0.5 µg/mL | selectivity ratio [2]: 7.7 | GI50 [3]: 3.8 µg/mL (≈ 9.81 µM) | MIC (Escherichia coli [4]): > 64 µg/mL

CC(C)CCNc1nc2nonc2nc1NCCC(C)C
minimal effective concentration (Escherichia coli [1]): 2 µg/mL

CCCCCCCNc1nc2nonc2nc1NCCCCCCC
minimal effective concentration (Escherichia coli [1]): 0.5 µg/mL | selectivity ratio [2]: 1.3 | GI50 [3]: 0.65 µg/mL (≈ 1.87 µM) | MIC (Escherichia coli [4]): > 64 µg/mL

CCCCCCCCCCNc1nc2nonc2nc1NCCCCCCCCCC
minimal effective concentration (Escherichia coli [1]): > 16 µg/mL

FC(F)(F)c1cccc(CNc2nc3nonc3nc2NCc2cccc(C(F)(F)F)c2)c1
minimal effective concentration (Escherichia coli [1]): > 16 µg/mL

FC(F)(F)c1cccc(CNc2nc3nonc3nc2Nc2cccc(Cl)c2)c1
minimal effective concentration (Escherichia coli [1]): 0.25 µg/mL | selectivity ratio [2]: 22 | GI50 [3]: 5.5 µg/mL (≈ 13.1 µM) | MIC (Escherichia coli [4]): > 64 µg/mL

CCCNc1nc2nonc2nc1Nc1cccc(Cl)c1
minimal effective concentration (Escherichia coli [1]): 1 µg/mL

CCCNc1nc2nonc2nc1NCCC
minimal effective concentration (Escherichia coli [1]): > 16 µg/mL

FC(F)(F)Oc1cccc(CNc2nc3nonc3nc2NCc2cccc(OC(F)(F)F)c2)c1
minimal effective concentration (Escherichia coli [1]): 0.125 µg/mL | selectivity ratio [2]: 18 | GI50 [3]: 2.3 µg/mL (≈ 4.6 µM) | MIC (Escherichia coli [4]): > 64 µg/mL

Clc1cccc(Nc2nc3nonc3nc2NCC2CCC2)c1
minimal effective concentration (Escherichia coli [1]): 1 µg/mL

CCCCNc1nc2nonc2nc1NCCCC
minimal effective concentration (Escherichia coli [1]): 8 µg/mL

CCCCCNc1nc2nonc2nc1Nc1cccc(Cl)c1
minimal effective concentration (Escherichia coli [1]): 0.5 µg/mL | selectivity ratio [2]: 4.3 | GI50 [3]: 2.1 µg/mL (≈ 6.31 µM) | MIC (Escherichia coli [4]): > 64 µg/mL

FC(F)(F)c1nc(NCCCNc2nc3nonc3nc2Nc2cccc(Cl)c2)ccc1Cl
MIC (Escherichia coli [5]): 0.5 µg/mL | MIC (Klebsiella pneumoniae): 1 µg/mL | fractional inhibitory concentration index (FICI) (Escherichia coli [6]): 0.039 | minimal effective concentration (Escherichia coli [1]): 0.25 µg/mL | MIC (Salmonella typhimurium [7]): 0.5 µg/mL | selectivity ratio [2]: 35 | MIC (Escherichia coli [8]): 1 µg/mL | MIC (Acinetobacter baumannii): 0.25 µg/mL | GI50 [3]: 8.7 µg/mL (≈ 17.4 µM) | MIC (Salmonella typhimurium [9]): 1 µg/mL | MIC (Pseudomonas aeruginosa): 1 µg/mL | MIC (Escherichia coli [4]): > 64 µg/mL

Clc1cccc(Nc2nc3nonc3nc2NCCc2c[nH]c3ccc(Cl)cc23)c1
minimal effective concentration (Escherichia coli [1]): 1 µg/mL

Nc1nc2nonc2nc1Nc1cccc(Cl)c1
minimal effective concentration (Escherichia coli [1]): 4 µg/mL

Clc1cccc(Nc2nc3nonc3nc2Nc2cccc(Cl)c2)c1
MIC (Escherichia coli [5]): 1 µg/mL | MIC (Klebsiella pneumoniae): 1 µg/mL | MIC (Salmonella typhimurium [7]): 1 µg/mL | MIC (Escherichia coli [8]): 1 µg/mL | MIC (Acinetobacter baumannii): 0.25 µg/mL | MIC (Salmonella typhimurium [9]): 1 µg/mL | MIC (Pseudomonas aeruginosa): 1 µg/mL

Clc1cccc(CNc2nc3nonc3nc2NCc2cccc(Cl)c2)c1
minimal effective concentration (Escherichia coli [1]): 0.5 µg/mL | selectivity ratio [2]: 3.2 | GI50 [3]: 1.6 µg/mL (≈ 3.99 µM) | MIC (Escherichia coli [4]): > 64 µg/mL

CC(C)CNc1nc2nonc2nc1Nc1cccc(Cl)c1
minimal effective concentration (Escherichia coli [1]): 2 µg/mL

CCCCCCCCCCCCNc1nc2nonc2nc1Nc1cccc(Cl)c1
minimal effective concentration (Escherichia coli [1]): > 16 µg/mL

Clc1cccc(Nc2nc3nonc3nc2NCCNc2ccc3ccccc3n2)c1
minimal effective concentration (Escherichia coli [1]): 16 µg/mL

CCCCCNc1nc2nonc2nc1NCCCCC
minimal effective concentration (Escherichia coli [1]): 1 µg/mL

Clc1cccc(Nc2nc3nonc3nc2NC2CCCC2)c1
minimal effective concentration (Escherichia coli [1]): 1 µg/mL

Fc1cccc(CNc2nc3nonc3nc2Nc2cccc(Cl)c2)c1
minimal effective concentration (Escherichia coli [1]): 1 µg/mL

FC(F)(F)Oc1cccc(CNc2nc3nonc3nc2Nc2cccc(Cl)c2)c1
minimal effective concentration (Escherichia coli [1]): 1 µg/mL

CCCCCCNc1nc2nonc2nc1NCCCCCC
minimal effective concentration (Escherichia coli [1]): 0.5 µg/mL | selectivity ratio [2]: 1.2 | GI50 [3]: 0.59 µg/mL (≈ 1.84 µM) | MIC (Escherichia coli [4]): > 64 µg/mL

FC(F)(F)c1nc(NCCCNc2nc3nonc3nc2NCCCNc2ccc(Cl)c(C(F)(F)F)n2)ccc1Cl
minimal effective concentration (Escherichia coli [1]): 0.25 µg/mL | selectivity ratio [2]: 10 | GI50 [3]: 2.6 µg/mL (≈ 4.16 µM) | MIC (Escherichia coli [4]): > 64 µg/mL

c1ccc(CCNc2nc3nonc3nc2NCCc2ccccc2)cc1
minimal effective concentration (Escherichia coli [1]): 2 µg/mL

CC(C)CCNc1nc2nonc2nc1Nc1cccc(Cl)c1
minimal effective concentration (Escherichia coli [1]): 1 µg/mL
